Measurements published in patent EP4810494A1, “HPK1 DEGRADATION AGENT AND USE THEREOF IN FIELD OF MEDICINE” (Haisco Pharmaceutical Group Co., Ltd., priority 2023, dated 2025).
Where a name gives a salt, the structure may show the parent alone.

What was measured:
HPK1 protein = target: T1, HPK1 protein (Homo sapiens, UniProt Q92918); test: Detection of HPK1 protein expression level in Jurkat cells (24 h); type: cell-based; details: 24 hours incubation
T1 construct: host or cells: Jurkat cells
Experimental: Test example 4: Detection of HPK1 protein expression level in Jurkat cells (24 h)
Jurkat cells from ATCC were placed in a RPMI-1640 complete medium (supplemented with 10% FBS and 1% penicillin-streptomycin solution) and cultured at 37°C and 5% CO2. The cells in the logarithmic growth phase were collected, the cell density was adjusted to 5 × 10^5 cells/well with the culture medium, and the cells were added to a 6-well cell culture plate at a volume of 1 mL/well. The compound to be tested was prepared to 2-fold the final concentration, 1 mL of the compounds at different concentrations were added to administration wells, a medium containing 0.2% DMSO was added to control wells, and the plate was incubated at 37°C and 5% CO2 for 24 hours. The cells were collected into a 1.5 mL centrifuge tube, 30 µL of RIPA lysis buffer (containing 1X protease inhibitor cocktail) was added, and the cells were lysed on ice for 15 minutes and centrifuged at 12000 rpm/min at 4°C for 10 minutes. The supernatant was collected and the protein content was determined using the BCA method. The protein sample to be tested was diluted to 0.2 mg/mL, HPK1 was detected using a fully automated protein expression quantitative analyser (ProteinSimple), and the internal reference protein was β-actin (all antibodies were from CST). The software (Compass for SW) of the fully automated protein expression quantitative analyser was used to process the raw data and calculate the peak area after internal reference normalisation and the HPK1 degradation rate relative to the control group. The HPK1 degradation rate was calculated according to formula 4-1, where Aadministration well is the relative peak area of the administration group after internal reference normalisation, and Acontrol well is the relative peak area of the vehicle control group after internal reference normalisation. DC50 values were calculated using a four-parameter non-linear fitting model in Graphpad 8.3.0 software. HPK1_degradation % = 100−(Aadministration well/Acontrol well×100%) [formula] Table 4-1 Degradation activity of test compounds against HPK1 protein in Jurkat cells (24 h)

HPK1 kinase [1] = target: T2, HPK1 kinase (Homo sapiens, UniProt Q92918); test: HPK1 kinase assay (Km concentration ATP); type: biochemical; details: for IC50: ATP at Km concentration (working concentration: 9 µM); for inhibitory activity against HPK1 kinase (in words): Km concentration ATP, conclusion
T2 construct: purchased Carna 07-410
T2 sequence (Q92918 1-346 limits assumed): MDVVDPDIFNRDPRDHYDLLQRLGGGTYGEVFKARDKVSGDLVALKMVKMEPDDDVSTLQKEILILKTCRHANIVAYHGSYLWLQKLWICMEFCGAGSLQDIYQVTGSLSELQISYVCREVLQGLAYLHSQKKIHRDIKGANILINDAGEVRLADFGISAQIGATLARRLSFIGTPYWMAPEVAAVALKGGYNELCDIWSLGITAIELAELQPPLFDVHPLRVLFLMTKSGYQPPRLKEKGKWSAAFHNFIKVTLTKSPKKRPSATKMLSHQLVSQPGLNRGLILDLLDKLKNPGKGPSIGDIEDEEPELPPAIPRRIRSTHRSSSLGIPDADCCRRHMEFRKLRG
Experimental: Test example 3: HPK1 kinase assay (Km concentration ATP)
(§1) The kinase HPK1 (Carna, Cat.No 07-410) was prepared into 2× kinase solution using 1× kinase buffer. The substrate Fluorescein-PKC (Invitrogen, Cat. No. PV3506) and ATP (working concentration: 9 µM) (Sigma, Cat. No. 2383-5G) were prepared into 2× substrate solution using 1×kinase buffer. The detection reagent was diluted to 2-fold the final concentration using an antibody diluent. 100 nL of compounds at different concentrations and 5 µL of kinase solution were added to each well of a 384-well plate, and the mixture was incubated at room temperature for 10 minutes. After the incubation was completed, 5 µL of substrate solution was added to each well, and the resulting mixture was reacted at room temperature for 90 minutes. After the reaction was completed, 10 µL of detection reagent was added to each well to terminate the reaction, and the mixture was incubated at room temperature for 60 minutes. Fluorescence readings were detected using an Envision instrument with excitation at 320 nm and emission at 520 nm and 495 nm. IC50 value was calculated using XLFit excel add-in version 5.4.0.8 software. The calculation formula of the inhibition rate was shown in formula 3-1, where max is the Ratio of the DMSO control, min is the Ratio of the negative control without enzyme, and sample is the Ratio of the compound. Ratio = RFU520nm /RFU495nm [formula] Inhibition% = (max−sample)/(max−min) × 100% [formula] Table 3-1 Inhibitory activity of test compounds against HPK1 kinase

[2] = Pharmacokinetic test in mice; type: in vivo, ICR mice; details: mouse, plasma, po, i. g.
Experimental: Test example 6: Pharmacokinetic test in mice
Experimental objective: In this experiment, a single dose of test substances was administered to ICR mice intravenously and intragastrically, the concentrations of the test compounds in plasma of mice were measured, and the pharmacokinetic characteristics and bioavailability of the test compounds in mice were evaluated.
Experimental animals: Male ICR mice, 20-35 g, purchased from Chengdu Dossy Experimental Animals Co., Ltd. (SCXK (CHUAN) 2020-030).
Experimental method: On the day of the experiment, the ICR mice were randomly grouped according to their body weights. The animals were fasted but with water available overnight before the administration, and fed 4 h after the administration.
Sampling: Blood was taken from the orbits of the mice at specified time points, and placed in an EDTAK2 centrifuge tube. Centrifugation was performed at 5000 rpm at 4°C for 10 min, and the plasma was collected.
Time points for plasma collection in G1 and G1-2 groups: 0, 5 min, 15 min, 30 min, 1 h, 2 h, 4 h, 7 h, and 24 h.
Time points for plasma collection in G2 and G2-2 groups: 0, 5 min, 15 min, 30 min, 1 h, 2 h, 4 h, 7 h, and 24 h.
Before analysis and detection, all the samples were stored at -60°C or lower. The samples were analysed quantitatively by LC-MS/MS. Table 6-1 PK data of test compound drug in mice

[3] = system: IL-2 secretion by T cells; test: IL-2 detection assay in cells (ELISA, pan-T cells isolated from PBMCs); type: cell-based; details: IL-2, CD3 antibody-coated plate, 24 hours; for Maximum activation fold: maximum activation rate/control group
Experimental: 9. IL-2 detection assay in cells
Activating effect of compounds on IL-2 secretion by T cells was evaluated using the ELISA method. Frozen PBMCs were thawed, and pan-T cells were isolated and purified using a T cell sorting kit (Stemcell, 17951). The cells were resuspended in 1640 complete medium and incubated in a 37°C&5%CO2 incubator overnight. A 96-well plate coated with an anti-human CD3 antibody (Thermo, 16-0037-38) at a final concentration of 5 µg/mL was incubated at 37°C for 2 h. The overnight-cultured cells were collected by centrifugation, the supernatant was discarded, and the cells were resuspended in 1640 complete medium, and seeded in the CD3 antibody-coated 96-well plate at a density of 10^5cells/well. The compounds at different concentrations were added, and the mixture was incubated in a 37°C&5%CO2 incubator for 24 hours. After the incubation was completed, the resulting mixture was centrifuged at 1000 rpm for 1 minute to collect the supernatant, and IL-2 was detected according to the ELISA instructions. DMSO without compounds was used as the control group to calculate the activation rate of the compounds, and prism was used to fit the activation curve. Maximum activation fold = maximum activation rate/control group. Table 9-1 Results of IL-2 activation by test compounds

[4] = Pharmacokinetic test in rats; type: in vivo, SD rats; details: rat, plasma
Experimental: Test example 7: Pharmacokinetic test in rats
Experimental animals: Male SD rats, 180-200 g, purchased from Chengdu Dossy Experimental Animals Co., Ltd. with the laboratory animal production license number of SCXK (CHUAN) 2020-030.
Experimental design: on the day of the experiment, the SD rats were randomly grouped according to their body weights. The animals were fasted but with water available overnight before the administration, and fed 4 h after the administration.
Vehicle for intragastric administration: 5% Solutol+5% TPGS+30% PEG400+60% (20% SBE-β-CD)
Blood was taken from the orbits of the […] at specified time points, and placed in an EDTAK2 centrifuge tube. Centrifugation was performed at 5000 rpm for 10 min, and the plasma was collected.
Blood sampling time points for the intravenous administration group were: 0, 5 min, 15 min, 30 min, 1 h, 2 h, 4 h, 6 h, 8 h and 24 h; blood sampling time points for the intragastric administration group were: 0, 5 min, 15 min, 30 min, 1 h, 2 h, 4 h, 6 h, 8 h and 24 h. Before analysis and detection, all the samples were stored at - 60°C or lower. The samples were analysed quantitatively by LC-MS/MS. Table 7-1 PK data of test compound drug in rats

HPK1 kinase [5] = target: T2, HPK1 kinase; test: HPK1 kinase assay (1 mM ATP); type: biochemical
Experimental: Test example 5: HPK1 kinase assay (1 mM ATP)
as §1, with “1 mM)” for “9 µM)”, “5-1, wherein” for “3-1, where”, “5-1” for “3-1”

T1 sequence (Q92918 whole entry): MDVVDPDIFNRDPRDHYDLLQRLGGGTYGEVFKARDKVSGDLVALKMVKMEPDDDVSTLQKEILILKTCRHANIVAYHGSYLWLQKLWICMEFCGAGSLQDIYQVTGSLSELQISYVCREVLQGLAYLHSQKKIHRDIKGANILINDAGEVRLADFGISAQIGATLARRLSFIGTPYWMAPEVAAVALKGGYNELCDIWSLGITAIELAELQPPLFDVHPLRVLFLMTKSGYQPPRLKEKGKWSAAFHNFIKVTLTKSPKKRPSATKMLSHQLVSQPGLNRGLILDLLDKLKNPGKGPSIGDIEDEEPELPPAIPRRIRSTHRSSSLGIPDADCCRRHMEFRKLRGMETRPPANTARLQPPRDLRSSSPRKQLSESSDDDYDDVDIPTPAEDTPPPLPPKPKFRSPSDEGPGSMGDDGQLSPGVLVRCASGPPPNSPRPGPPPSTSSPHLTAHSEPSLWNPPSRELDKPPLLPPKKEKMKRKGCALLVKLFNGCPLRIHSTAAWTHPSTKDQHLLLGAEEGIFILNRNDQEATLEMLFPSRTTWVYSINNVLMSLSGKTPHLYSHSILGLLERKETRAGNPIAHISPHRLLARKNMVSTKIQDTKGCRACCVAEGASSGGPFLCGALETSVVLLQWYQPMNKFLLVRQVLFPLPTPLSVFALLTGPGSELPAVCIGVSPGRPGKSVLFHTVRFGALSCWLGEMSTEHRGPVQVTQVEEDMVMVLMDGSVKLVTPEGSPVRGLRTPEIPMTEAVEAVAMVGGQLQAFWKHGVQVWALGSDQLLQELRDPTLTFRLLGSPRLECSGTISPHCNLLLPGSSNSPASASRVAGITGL

Structure (SMILES)	DC50 (HPK1 protein) [nM]	IC50 (HPK1 kinase [1]) [nM]	inhibitory activity against HPK1 kinase (in words) (HPK1 kinase [1])	AUC ([2]; 10 mg/kg) [ng·h/mL]	Cmax ([2]; 10 mg/kg) [ng/mL]	half-life ([2]; 10 mg/kg) [min]	Activation fold at 100 nM concentration [3]	Maximum activation fold [3]	IC50 (HPK1 kinase [5]) [nM]	other results
O=C1CCN(c2ccc(N3CCN(CC4CCN(c5ccc(Nc6ccc(-c7cnc8cc(F)ccn78)c7c6C(=O)NC7)nc5)CC4)CC3)cc2F)C(=O)N1 [Trifluoroacetic acid salt of compound 2]	< 20	< 10	good inhibitory activity	16800	1280	347	–	–	–	–
O=C1CCC(c2cc3c(cc2F)N2CCN(CC4CCN(c5ccc(Nc6ccc(-c7cnc8cc(F)ccn78)c7c6C(=O)NC7)nc5)CC4)C[C@@H]2CC3)C(=O)N1 (stereo partly drawn) [Trifluoroacetic acid salt of compound 4]	< 20	< 10	good inhibitory activity	15200	1140	436	–	–	–	–
N#Cc1ccn2c(-c3ccc(Nc4ccc(N5CCC(CN6CCN7c8cc(F)c(N9CCC(=O)NC9=O)cc8CC[C@@H]7C6)CC5)cn4)c4c3CNC4=O)cnc2c1 [Trifluoroacetic acid salt of compound 31]	< 20	–	–	–	–	–	>10	>10	< 50	AUC ([2]; 5 mg/kg): 6500 ng·h/mL; Cmax ([2]; 5 mg/kg): 553 ng/mL; half-life ([2]; 5 mg/kg): 182 min; clearance ([4]; IV, 1 mg/kg): 5.38 mL/min/kg; half-life ([4]; IV, 1 mg/kg): 293 min; AUC ([4]; po, i. g., 5 mg/kg): 4390 ng·h/mL; Cmax ([4]; po, i. g., 5 mg/kg): 464 ng/mL; half-life ([4]; po, i. g., 5 mg/kg): 269 min
N#Cc1ccn2c(-c3ccc(Nc4ccc(N5CCC(CN6CCN7c8cc(F)c(N9CCC(=O)NC9=O)cc8CC[C@H]7C6)CC5)cn4)c4c3CNC4=O)cnc2c1 [Trifluoroacetic acid salt of compound 39]	< 20	–	–	25600	2070	225	>10	>10	< 50	clearance ([4]; IV, 2.5 mg/kg): 6.58 mL/min/kg; half-life ([4]; IV, 2.5 mg/kg): 253 min; AUC ([4]; po, i. g., 10 mg/kg): 7260 ng·h/mL; Cmax ([4]; po, i. g., 10 mg/kg): 777 ng/mL; half-life ([4]; po, i. g., 10 mg/kg): 273 min
O=C1CCC(c2cc3c(cc2F)N2CCN(CC4CCN(c5ccc(Nc6ccc(-c7cnc8cc(F)ccn78)c7c6C(=O)NC7)nc5)CC4)C[C@H]2CC3)C(=O)N1 (stereo partly drawn) [Trifluoroacetic acid salt of compound 3]	< 20	< 10	good inhibitory activity	–	–	–	–	–	–	–
O=C1CCN(c2cc3c(cc2F)N2CCN(C4CC5(CCN(c6ccc(Nc7ccc(-c8cnc9cc(F)ccn89)c8c7C(=O)NC8)nc6)CC5)C4)C[C@H]2CC3)C(=O)N1 [Trifluoroacetic acid salt of compound 19]	< 20	–	–	50500	3700	401	>10	>10	< 50	clearance ([4]; IV, 2.5 mg/kg): 11 mL/min/kg; half-life ([4]; IV, 2.5 mg/kg): 460 min; AUC ([4]; po, i. g., 10 mg/kg): 5860 ng·h/mL; Cmax ([4]; po, i. g., 10 mg/kg): 465 ng/mL; half-life ([4]; po, i. g., 10 mg/kg): 430 min
Cn1ccc2c(-c3ccc(Nc4ccc(N5CCC(CN6CCN7c8cc(F)c(N9CCC(=O)NC9=O)cc8CC[C@@H]7C6)CC5)cn4)c4c3CNC4=O)ccnc21 [Trifluoroacetic acid salt of compound 32]	< 20	–	–	15800	1250	262	–	>10	< 50	–
